Read-outs that look alike come from different tables or passages of the source.
Key:
Type in all cases: cell-based, human
[1] = tested on: MCF7 cells; test: MTT growth inhibition assay; conditions: for IC50: Homo sapiens, read-out: Growth inhibitory activity (IC50) in MCF7 cells
Procedure: The cell lines were obtained from the American Type Culture Collection (Rockville, Md.) and were grown as follows: MCF-7 (p53 wt) breast cancer cells were grown in DMEM media containing 1 mM non-essential amino acids, Earle's BSS, 1 mM Na pyruvate, and 10 mg/L bovine insulin.
All media contained 10% FBS and 1% penicillin/streptomycin unless otherwise specified. The effects of disclosed compounds on human cancer cell growth, expressed as the percentage of cell survival, were determined by the MTT [3-(4,5-Dimethyl-2-thiazolyl)-2,5-diphenyl-2H-tetrazolium bromide] assay. Cells were grown in 96-well plates and exposed to the test compounds (0, 0.01, 0.1, 1, 10, 100 μM) for 72 hr followed by addition of 10 μL MTT solution (5 mg/mL; Sigma; St. Louis, Mo.) to each well. The plates were incubated for 2-4 hr at 37° C. The supernatant was then removed and formazan crystals were dissolved with 100 μL of DMSO. The absorbance at 570 nm was recorded with an OPTImax microplate reader (Molecular Devices; Sunnyvale, Calif.). The cell survival percentages were calculated by dividing the mean OD of compound containing wells by that of DMSO-control wells. Three separate experiments were accomplished to determine the IC50.

[2] = tested on: p53; test: Protein expression, Western blot in MCF-7 cells; conditions: 1 μM, 6 h (FIG. 4A)
Procedure: (§1) In FIG. 4A, MCF-7 cells were exposed to 1 μM concentration of the indicated compounds for 6 hours. Western blots were probed with antibodies specific for the proteins indicated. Numbers below each lane show densitometry readings for each lane as compared to control. […] Western blots were probed with antibodies specific for the proteins indicated.
(§2) To determine the disclosed compounds effect on protein expression in human breast cancer cells, cultured MCF-7 cells were exposed to various concentrations of the test compounds for 6 h (FIG. 4A) or 24 h (FIG. 4B). Cell lysates were fractionated with identical amounts of protein by SDS-PAGE and transferred to Bio-Rad trans-Blot nitrocellulose membranes (Bio-Rad Laboratories, Hercules, Calif.). The nitrocellulose membrane was incubated in blocking buffer (Tris-buffered saline containing 0.1% Tween 20 and 5% nonfat milk) for 1 h at room temperature, then with the appropriate primary antibody overnight at 4° C. or 2 h at room temperature with gentle shaking. Finally, the membrane was washed three times with the washing buffer (Tris-buffered saline containing 0.1% Tween 20) for 15 min, incubated with goat anti mouse/rabbit IgG-horseradish peroxidase-conjugated antibody (Bio-Rad) for 1 h at room temperature, and washed again (in triplicate). The protein of interest was detected by enhanced chemiluminescence reagents from PerkinElmer LAS, Inc (Boston, Mass.).

[3] = tested on: MDM2; test: Protein expression, Western blot in MCF-7 cells; conditions: 1 μM, 6 h (FIG. 4A)
Procedure: as §1, §2

[4] = tested on: p21; test: Protein expression, Western blot in MCF-7 cells; conditions: 1 μM, 6 h (FIG. 4A)
Procedure: as §1, §2

[5] = tested on: MCF-7; test: XTT cytotoxicity assay
Procedure: (§3) In initial experiments, compounds 4a-g and 7c-g were evaluated for their cytotoxicity against human breast cancer cell lines MCF-7 and MDA-MB-468 and human colon cancer cell line HCT-116. The makaluvamine compounds provided in Table 2 were also evaluated for their cytotoxicity against human breast cancer cell lines MCF-7. Compound nos. 8 and 27-33 were not evaluated in this experiment. Cells were obtained from ATCC (Manassas, Va.). For each derivative the IC50 value was determined using data generated from 2-4 independent tetrazolium-based (XTT) cytotoxicity assays (R & D Systems Inc., Minneapolis, Minn.) according to the manufacturer's instructions. […] MCF-7, MDA-MD-468 and HCT-116 cells were grown at 37 degrees C. in a humidified atmosphere with complete growth media supplemented with fetal bovine serum. Growth media was changed 2-3 times per week as required.

[6] = tested on: HCT-116; test: XTT cytotoxicity assay; conditions: read-out: Inhibition of Cancer Cell Proliferation (IC50) HCT-116
Procedure: as §3

[7] = tested on: MDA-MB-468; test: XTT cytotoxicity assay; conditions: read-out: Inhibition of Cancer Cell Proliferation (IC50) MDA-MB-468
Procedure: as §3

[8] = Homo sapiens, MCF7, Table 2, XTT, read-out: IC50 (μM) MCF-7
[9] = Table 2, XTT, read-out: IC50 (μM) MCF-7
[10] = average ± standard deviation of 2-4 independent assays
[11] = XTT, average ± standard deviation of 2-4 independent assays, read-out: Inhibition of Cancer Cell Proliferation (IC50) MCF-7

`COc1ccc(CCNC2=CC3=NCCc4c[nH]c(c43)C2=O)cc1.O=C(O)C(F)(F)F` [Compound 16] was tested, and the IC50 ([1]; MCF7, Table 5, MTT, 72 hr) was 200 nM, the “Growth inhibitory activity (IC50) in MCF7 cells” value (“Growth inhibitory activity” below) ([1]; Table 5, MTT, 72 hr) was “nM range” and the “expression of p53” value [2] was “decreased the expression”. The “expression of MDM2” value [3] was “inhibited the expression” and the “expression of p21” value [4] was “decreased the expression”.

For `Cc1ccc(CNC2=CC3=NCCc4cn(S(=O)(=O)c5ccc(C)cc5)c(c43)C2=O)cc1` [Compound 9], the IC50 [5, 8] was 1 to 5 µM and the IC50 [5, 9] was 1.48 µM.

`Cc1ccc(S(=O)(=O)n2cc3c4c2C(=O)C(NCCc2c[nH]c5ccccc25)=CC4=NCC3)cc1` [Compound 7g] was tested, and the IC50 [6, 10] was 800 ± 300 nM, the IC50 [7, 10] was 1400 ± 900 nM and the IC50 [5, 11] was 1.2 ± 0.03 µM.

`O=C(O)C(F)(F)F.O=C1C(NCCc2ccc(F)cc2)=CC2=NCCc3c[nH]c1c32` [Compound 30] was tested, and the IC50 ([1]; MCF7, Table 5, MTT, 72 hr) was 787 nM, the “Growth inhibitory activity” value ([1]; Table 5, MTT, 72 hr) was “nM range” and the “expression of p53” value [2] was “increased the expression”. For the same compound, the “expression of p21” value [4] was “increased the expression”.

With `Cc1ccc(CCNC2=CC3=NCCc4c[nH]c(c43)C2=O)cc1.O=C(O)C(F)(F)F` [Compound 12] the IC50 ([1]; MCF7, Table 5, MTT, 72 hr) was 833 nM, the “Growth inhibitory activity” value ([1]; Table 5, MTT, 72 hr) was “nM range” and the “expression of p53” value [2] was “increased the expression”. For the same compound, the “expression of MDM2” value [3] was “inhibited the expression” and the “expression of p21” value [4] was “decreased the expression”.

With `COc1ccc(CNC2=CC3=NCCc4c[nH]c(c43)C2=O)cc1OC` [Compound 18] the IC50 [5, 8] was 5 to 15 µM and the IC50 [5, 9] was 5.98 µM.

`O=C(O)C(F)(F)F.O=C1C(NCc2ccc3c(c2)OCO3)=CC2=NCCc3c[nH]c1c32` [Compound 2] was tested, and the IC50 ([1]; MCF7, Table 5, MTT, 72 hr) was 809 nM, the “Growth inhibitory activity” value ([1]; Table 5, MTT, 72 hr) was “nM range” and the “expression of p53” value [2] was “increased the expression”. The “expression of p21” value [4] was “decreased the expression”, the IC50 [5, 8] was 5 to 15 µM and the IC50 [5, 9] was 5.22 µM.

With `Cc1ccc(S(=O)(=O)n2cc3c4c2C(=O)C(NCc2ccc(Cl)cc2)=CC4=NCC3)cc1.O=C(O)C(F)(F)F` [Compound 21] the IC50 ([1]; MCF7, Table 5, MTT, 72 hr) was 774 nM, the “Growth inhibitory activity” value ([1]; Table 5, MTT, 72 hr) was “nM range” and the “expression of p53” value [2] was “decreased the expression”. For the same compound, the “expression of MDM2” value [3] was “inhibited the expression”, the “expression of p21” value [4] was “decreased the expression” and the IC50 [5, 8] was < 1 µM. The IC50 [5, 9] was 0.83 µM.

`Cc1ccc(CNC2=CC3=NCCc4c[nH]c(c43)C2=O)cc1` [Compound 10] was tested, and the IC50 [5, 8] was 1 to 5 µM and the IC50 [5, 9] was 1.69 µM.

Compound `COc1ccc(CNC2=CC3=NCCc4cn(S(=O)(=O)c5ccc(C)cc5)c(c43)C2=O)cc1` [Compound 13] has an IC50 [5, 8] of 1 to 5 µM and an IC50 [5, 9] of 1.02 µM.

`COc1ccc(CNC2=CC3=NCCc4cn(S(=O)(=O)c5ccc(C)cc5)c(c43)C2=O)cc1OC.O=C(O)C(F)(F)F` [Compound 17] was tested, and the IC50 ([1]; MCF7, Table 5, MTT, 72 hr) was 1010 nM, the “Growth inhibitory activity” value ([1]; Table 5, MTT, 72 hr) was “μM range” and the “expression of p53” value [2] was “increased the expression”. For the same compound, the “expression of p21” value [4] was “increased the expression”, the IC50 [5, 8] was < 1 µM and the IC50 [5, 9] was 0.65 µM.

`O=C1C(NCc2ccc(Cl)cc2)=CC2=NCCc3c[nH]c1c32` [Compound 22] showed an IC50 [5, 8] of 1 to 5 µM and an IC50 [5, 9] of 1.33 µM.

`Cc1ccc(S(=O)(=O)n2cc3c4c2C(=O)C(NCCc2ccc(Cl)cc2)=CC4=NCC3)cc1` [Compound 23] showed an IC50 [5, 8] of 1 to 5 µM and an IC50 [5, 9] of 1.55 µM.

For `Cc1ccc(S(=O)(=O)n2cc3c4c2C(=O)C(NCCc2ccc(F)cc2)=CC4=NCC3)cc1.O=C(O)C(F)(F)F` [Compound 29], the IC50 ([1]; MCF7, Table 5, MTT, 72 hr) was 1920 nM, the “Growth inhibitory activity” value ([1]; Table 5, MTT, 72 hr) was “μM range” and the “expression of p53” value [2] was “increased the expression”. For the same compound, the “expression of p21” value [4] was “increased the expression”.

With `O=C(O)C(F)(F)F.O=C1C(NCCc2ccc(Cl)cc2)=CC2=NCCc3c[nH]c1c32` [Compound 24] the IC50 ([1]; MCF7, Table 5, MTT, 72 hr) was 584 nM, the “Growth inhibitory activity” value ([1]; Table 5, MTT, 72 hr) was “nM range” and the “expression of p53” value [2] was “increased the expression”. The “expression of MDM2” value [3] was “inhibited the expression” and the “expression of p21” value [4] was “decreased the expression”.

For `O=C(O)C(F)(F)F.O=C1C(NCCc2ccc(Cl)c(Cl)c2)=CC2=NCCc3c[nH]c1c32` [Compound 26], the IC50 ([1]; MCF7, 72 h) was 495 nM, the “Growth inhibitory activity” value ([1]; Table 5, MTT, 72 hr) was “nM range” and the “expression of p53” value [2] was “increased the expression”. The “expression of p21” value [4] was “increased the expression”.

In the case of `COC1=CC(CNC2=CC3=NCCc4cn(S(=O)(=O)c5ccc(C)cc5)c(c43)C2=O)=CC(OC)C1OC` (centres unmarked) [Compound 3], the IC50 [5, 8] is reported as < 1 µM and the IC50 [5, 9] is reported as 0.96 µM.

In the case of `Cc1ccc(S(=O)(=O)n2cc3c4c2C(=O)C(NCCc2ccc([N+](=O)[O-])cc2)=CC4=NCC3)cc1` [Compound 7], the IC50 [5, 8] is reported as < 1 µM and the IC50 [5, 9] is reported as > 1 µM.

`Cc1ccc(S(=O)(=O)n2cc3c4c2C(=O)C(NCCc2ccccc2)=CC4=NCC3)cc1` [Compound 7d] was tested, and the IC50 [6, 10] was 500 nM, the IC50 [7, 10] was 800 ± 100 nM and the IC50 [5, 11] was 1.5 ± 0.1 µM.

With `COC1=CC(CNC2=CC3=NCCc4c[nH]c(c43)C2=O)=CC(OC)C1OC.O=C(O)C(F)(F)F` (centres unmarked) [Compound 4] the IC50 ([1]; MCF7, Table 5, MTT, 72 hr) was 515 nM, the “expression of p53” value [2] was “increased the expression” and the IC50 [5, 8] was 30.5 µM.

For `COc1ccc(CCNC2=CC3=NCCc4cn(S(=O)(=O)c5ccc(C)cc5)c(c43)C2=O)cc1OC` [Compound 19], the IC50 [5, 8] was < 1 µM and the IC50 [5, 9] was > 1 µM.

For `Cc1ccc(S(=O)(=O)n2cc3c4c2C(=O)C(NCc2ccc5c(c2)OCO5)=CC4=NCC3)cc1.O=C(O)C(F)(F)F` [Compound 1], the “expression of p21” value [4] was “increased the expression”, the IC50 [5, 8] was < 1 µM and the IC50 [5, 9] was 0.78 µM.

Compound `Cc1ccc(CCNC2=CC3=NCCc4cn(S(=O)(=O)c5ccc(C)cc5)c(c43)C2=O)cc1` [Compound 11] has an IC50 [5, 8] of 1 to 5 µM and an IC50 [5, 9] of 1.47 µM.

`Cc1ccc(S(=O)(=O)n2cc3c4c2C(=O)C(NCCc2ccc5c(c2)OCO5)=CC4=NCC3)cc1.O=C(O)C(F)(F)F` [Compound 5] was tested, and the IC50 ([1]; MCF7, Table 5, MTT, 72 hr) was 1620 nM, the “Growth inhibitory activity” value ([1]; Table 5, MTT, 72 hr) was “μM range” and the “expression of p53” value [2] was “increased the expression”. For the same compound, the “expression of p21” value [4] was “increased the expression”.

For `COc1cc([C@@H]2c3cc4c(cc3[C@@H](O[C@@H]3O[C@@H]5CO[C@@H](C)O[C@H]5[C@H](O)[C@H]3O)[C@H]3COC(=O)[C@H]23)OCO4)cc(OC)c1O` [Etoposide, reference compound], the IC50 ([6]; Homo sapiens, HCT-116, average ± standard deviation of 2-4 independent assays) was 1700 nM, the IC50 ([7]; Homo sapiens, MDA-MB-468, average ± standard deviation of 2-4 independent assays) was 13600 nM and the IC50 [5, 8] was 30.5 µM. For the same compound, the IC50 ([5]; Homo sapiens, MCF7, XTT, average ± standard deviation of 2-4 independent assays, read-out: Inhibition of Cancer Cell Proliferation (IC50) MCF-7) was 35.6 µM.

With `COc1ccc(CCNC2=CC3=NCCc4cn(S(=O)(=O)c5ccc(C)cc5)c(c43)C2=O)cc1.O=C(O)C(F)(F)F` [Compound 15] the IC50 ([1]; MCF7, Table 5, MTT, 72 hr) was 1050 nM, the “Growth inhibitory activity” value ([1]; Table 5, MTT, 72 hr) was “μM range” and the “expression of p53” value [2] was “decreased the expression”. The “expression of MDM2” value [3] was “inhibited the expression”, the “expression of p21” value [4] was “decreased the expression” and the IC50 [5, 8] was 1 to 5 µM. It also gave an IC50 [5, 9] of 1.33 µM.

In the case of `O=C(O)C(F)(F)F.O=C1C(NCCc2ccc([N+](=O)[O-])cc2)=CC2=NCCc3c[nH]c1c32` [Compound 8], the IC50 ([1]; MCF7, Table 5, MTT, 72 hr) is reported as 427 nM, the “Growth inhibitory activity” value ([1]; Table 5, MTT, 72 hr) is reported as “nM range” and the “expression of p53” value [2] is reported as “decreased the expression”. For the same compound, the “expression of MDM2” value [3] was “inhibited the expression” and the “expression of p21” value [4] was “decreased the expression”.

With `Cc1ccc(S(=O)(=O)n2cc3c4c2C(=O)C(NCCc2cc(Br)c(O)c(Br)c2)=CC4=NCC3)cc1` [Compound 7f] the IC50 [6, 10] was 1000 ± 200 nM, the IC50 [7, 10] was 1500 ± 900 nM and the IC50 [5, 11] was 2.3 ± 1.1 µM.
